According to patent US11306071B2, “Heterocyclic compounds as adenosine antagonists” (Nuvation Bio Inc., priority 2019, dated 2022):

Legend:
[1] = target: adenosine A2a (human) membrane (Homo sapiens (Human), UniProt P29274); assay: A2A adenosine receptor radioligand binding assay ([3H] CGS-21680); details: radioligand [3H] CGS-21680 6 nM
Method: A second A2A adenosine receptor radioligand binding assay protocol was used. The protocol used adenosine A2a (human) membrane (PerkinElmer RBHA2AM400UA) at a concentration of 5 μg/well/100 μl and the radioligand [3H] CGS-21680 (Cat No. PerkinElmer-NET1021250UC) at a final concentration of 6 nM. Testing compounds were diluted with DMSO to make 8-point 4-fold serial dilution, starting at 0.2 mM. CGS-15943 was the reference compound. 1 μl of compounds/high control/low control was transferred to the assay plate according to a plate map, followed by 100 μl of membrane stocks and 100 μl of radioligand, in assay buffer (50 mM Tris-HCl, 10 mM MgCl2, 1 mM EDTA, pH 7.4). The plate was sealed and incubated at RT for 2 hours. Unifilter-96 GF/C filter plates (Perkin Elmer Cat #6005174) were soaked with 50 μl of 0.3% PEI per well for at least 0.5 hour at room temperature. When the binding assays were completed, the reaction mixtures were filtered through GF/C plates using Perkin Elmer Filtermate Harvester, and each plate washed 4 times with cold wash buffer (50 mM Tris-HCl, 154 mM NaCl, pH 7.4). The filter plates were dried for 1 hour at 50 degrees. After drying, the bottom of the filter plate wells was sealed, 50 μl of Perkin Elmer Microscint 20 cocktail was added, and the top of the filter plate was sealed. ^3H trapped on the filter was counted using Perkin Elmer MicroBeta2 Reader. The data were analyzed with GraphPad Prism 5 to obtain binding IC50 values. The “Inhibition [% Control]” was calculated using the equation: % Inh=(1-Background subtracted Assay value/Background subtracted HC value)*100, where HC is high control.

[2] = target: adenosine A1 (human) membrane (Homo sapiens (Human), UniProt P30542); assay: A1 adenosine receptor radioligand binding assay ([3H] DPCPX); details: 200 nM compound; radioligand [3H] DPCPX 1 nM
Method: A second A1 adenosine receptor radioligand binding assay protocol was used. The protocol used adenosine A1 (human) membrane (PerkinElmer ES-010-M400UA) at a concentration of 2.5 μg/well/100 μl and the radioligand [3H] DPCPX (Cat No. PerkinElmer-NET974250UC) at a final concentration of 1 nM. Testing compounds were tested at a final concentration of 200 nM. CGS-15943, the reference compound, was tested in an 8-point 4-fold serial dilution, starting at a top concentration of 1 μM. 1 μl of compounds/high control/low control was transferred to the assay plate according to a plate map, followed by 100 μl of membrane stocks and 100 μl of radioligand, in assay buffer (25 mM HEPES, 5 mM MgCl2, 1 mM CaCl2, 100 mM NaCl, pH 7.4). The plate was sealed and incubated at RT for 1 hour. Unifilter-96 GF/C filter plates (Perkin Elmer Cat #6005174) were soaked with 50 μl of 0.3% PEI per well for at least 0.5 hour at room temperature. When the binding assays were completed, the reaction mixtures were filtered through GF/C plates using Perkin Elmer Filtermate Harvester, and each plate washed 4 times with cold wash buffer (25 mM HEPES, 5 mM MgCl2, 1 mM CaCl2, 100 mM NaCl, pH 7.4). The filter plates were dried for 1 hour at 50 degrees. After drying, the bottom of the filter plate wells was sealed, 50 μl of Perkin Elmer Microscint 20 cocktail was added, and the top of the filter plate was sealed. ^3H trapped on the filter was counted using Perkin Elmer MicroBeta2 Reader. The data were analyzed with GraphPad Prism 5 to obtain binding IC50 values for the reference compound. The “Inhibition [% Control]” was calculated using the equation: % Inh=(1-Background subtracted Assay value/Background subtracted HC value)*100, where HC is high control.

[3] = target: HEK-293 cells expressing human recombinant adenosine A1 receptor (Homo sapiens (Human), UniProt P30542); assay: cAMP assay (Assay 2), A1 receptor; assay type: cell-based
Method: (§1) The functional activity of compounds was tested using Assay 2, below, to detect the presence of cAMP. Assay 1 is an alternative assay for this purpose. Activation of G-protein coupled receptors (such as A2A) results in activation of adenylyl cyclase which converts ATP into cAMP which is used as a downstream signaling molecule. Therefore, molecules which act as GPCR (or specifically A2A receptor) antagonists cause a decrease in intracellular cAMP concentration.
(§2) Assay 2 (Table B2): This assay used HEK-293 cells expressing human recombinant adenosine A2A receptor (or, alternatively, A1 receptor) that were grown prior to the test in media without antibiotic. 100 nL of test articles at 100x of final concentration were transferred to assay plate by Echo. Cells were washed twice with 5 mL of PBS and 10 μL of cells were mixed with 5 mL PBS. After aspirating the PBS and adding 1.5 mL versine, cells were incubated at 37° C. for 2-5 min. After centrifugation, 4 mL of medium was added and adjusted cell density to 5,000 cells/well with Stimulation Buffer. 10 μL of cells were aliquoted to the assay plate, centrifuged at 1000 rpm for 1 minute, and incubated for 60 minutes at room temperature. 5 μL 4× Eu-cAMP tracer solution and 5 μL 4× Ulight™-anti-cAMP solution were added to assay plate, followed by centrifugation and 60-minute incubation at room temperature. Plates were read on EnVision.

[4] = target: HEK-293 cells expressing human recombinant adenosine A2A receptor (Homo sapiens (Human), UniProt P29274); assay: cAMP assay (Assay 2), A2A receptor; assay type: cell-based
Method: as §1, §2

adenosine A2a (human) membrane, sequence (P29274 whole entry): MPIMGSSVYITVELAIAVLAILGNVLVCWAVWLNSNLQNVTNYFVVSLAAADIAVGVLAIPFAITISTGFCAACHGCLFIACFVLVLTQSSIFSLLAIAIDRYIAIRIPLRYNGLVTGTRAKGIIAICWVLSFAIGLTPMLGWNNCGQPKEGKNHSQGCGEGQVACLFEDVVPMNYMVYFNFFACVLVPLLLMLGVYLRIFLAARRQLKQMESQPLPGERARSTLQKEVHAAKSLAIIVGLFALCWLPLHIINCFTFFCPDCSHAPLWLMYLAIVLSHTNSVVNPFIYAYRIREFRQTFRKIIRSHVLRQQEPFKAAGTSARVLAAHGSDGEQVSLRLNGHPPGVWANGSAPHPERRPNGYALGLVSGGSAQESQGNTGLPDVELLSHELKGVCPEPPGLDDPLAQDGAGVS
HEK-293 cells expressing human recombinant adenosine A2A receptor, sequence (P29274 whole entry): as above
adenosine A1 (human) membrane, sequence (P30542 whole entry): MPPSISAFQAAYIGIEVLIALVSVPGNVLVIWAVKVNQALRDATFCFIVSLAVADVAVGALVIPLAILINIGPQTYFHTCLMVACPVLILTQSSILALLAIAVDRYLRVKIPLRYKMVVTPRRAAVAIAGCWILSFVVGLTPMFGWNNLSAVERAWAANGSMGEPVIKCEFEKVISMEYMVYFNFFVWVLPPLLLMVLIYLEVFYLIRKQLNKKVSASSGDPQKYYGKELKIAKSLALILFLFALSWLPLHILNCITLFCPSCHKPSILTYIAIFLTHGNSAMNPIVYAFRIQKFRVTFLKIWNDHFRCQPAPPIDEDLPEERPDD
HEK-293 cells expressing human recombinant adenosine A1 receptor, sequence (P30542 whole entry): as above

IC50 [1] [µM]	inhibition at 0.2 µM [2] [%]	IC50 [3] [µM]	IC50 [4] [µM]	Compound
0.0012	94	0.01	0.048	N#Cc1cccc(CNC(=O)c2nc(-c3cc(Cl)c4ncccc4c3)c(-c3ccc(F)cc3)nc2N)n1 [Compound No. 105, 3-amino-6-(8-chloroquinolin-6-yl)-N-((6-cyanopyridin-2-yl)methyl)-5-(4-fluorophenyl)pyrazine-2-carboxamide]
0.0016	70	0.022	0.028	C[C@@H](NC(=O)c1nc(-c2cc(Cl)c3ncccc3c2)c(-c2ccn(C)n2)nc1N)c1ccccn1 [Compound No. 100, (R)-3-amino-6-(8-chloroquinolin-6-yl)-5-(1-methyl-1H-pyrazol-3-yl)-N-(1-(pyridin-2-yl)ethyl)pyrazine-2-carboxamide]
